Laboratory results reported in PMC6979384, “Characterization of the plant homeodomain (PHD) reader family for their histone tail interactions” (Epigenetics & Chromatin, 2020).
Where no end group is shown, it is not given here. [ ]: non-standard residue; d: D form. pS = N[C@@H](COP(=O)(O)O)C(=O)O

Columns and labels:
Assay in all cases: Histone peptide microarray
Type in all cases: binding, human
[1] = system: PHF23
Description: (§1) To more comprehensively define the histone interactions of the 31 PHD readers identified from the domain microarray analyses, we probed each on an alternate microarray platform containing a library of 293 synthetic histone peptides with single or combinatorial PTMs (Additional file 2: Figure S4 and Additional file 3: Table S2).
(§2) The 31 GST-tagged PHD readers identified in the PHD finger domain array were expressed and purified as previously. Histone peptide arrays and peptide pulldown assays were conducted as recently described (specifically, the optimized protocol from Petell et al. for the former).
(§3) Supplementary file 13072_2020_328_MOESM3_ESM.xlsx: Additional file 3: Table S2. […] Excel Tab Peptide List is a compiled list of the entire 293 histone peptide library with amino acid sequence ranges. […] Each number corresponds to the peptide number designated in Peptide List. Excel Tab Average Signals is a compiled set of binding data: chromatin reader at 0.5 μM vs. entire 293 peptide library. Data is presented as the average and standard deviation of 4 replicates. The average signals are colored to indicate signal intensity with green being strong and white being weak/low. […] Key: red= stronger relative binding; blue = weaker relative binding. Excel Tab Array info summary is a table summarizing the domains, sequence coverage, array signal range, and noise for each of the GST-tagged readers assayed on the peptide microarrays.

[2] = system: TAF3
Description: as §1, §2, §3

[3] = system: ING5
Description: as §1, §2, §3

[4] = system: PHRF1 (RP); conditions: PHRF1 (RP)
Description: as §1, §2, §3

[5] = system: DIDO1
Description: as §1, §2, §3

[6] = system: BPTF (PB); conditions: BPTF (PB)
Description: as §1, §2, §3

[7] = system: KDM4C (TTP); conditions: KDM4C (TTP)
Description: as §1, §2, §3

[8] = system: ING4
Description: as §1, §2, §3

[9] = system: ING3
Description: as §1, §2, §3

[10] = system: KDM5A (3); conditions: KDM5A (3)
Description: as §1, §2, §3

[11] = system: CHD4 (PPCC); conditions: CHD4 (PPCC)
Description: as §1, §2, §3

[12] = system: ING2
Description: as §1, §2, §3

[13] = system: DPF2 (PPC2W2); conditions: DPF2 (PPC2W2)
Description: as §1, §2, §3

[14] = system: MORC3 (CW); conditions: MORC3 (CW)
Description: as §1, §2, §3

[15] = system: TRIM66 (PB); conditions: TRIM66 (PB)
Description: as §1, §2, §3

[16] = system: PHF2
Description: as §1, §2, §3

[17] = system: MLL5
Description: as §1, §2, §3

[18] = system: PHF21A; conditions: PHF21A
Description: as §1, §2, §3

[19] = system: AIRE (PP); conditions: AIRE (PP)
Description: as §1, §2, §3

[20] = system: ING1
Description: as §1, §2, §3

[21] = system: PHF8
Description: as §1, §2, §3

[22] = system: RAG2
Description: as §1, §2, §3

[23] = system: KDM5B (1); conditions: KDM5B (1)
Description: as §1, §2, §3

[24] = system: KDM7A; conditions: KDM7A
Description: as §1, §2, §3

[25] = system: KDM5B (3); conditions: KDM5B (3)
Description: as §1, §2, §3

[26] = system: CHD5 (PPCC); conditions: CHD5 (PPCC)
Description: as §1, §2, §3

[27] = system: PHF13
Description: as §1, §2, §3

[28] = system: KDM5A (1); conditions: KDM5A (1)
Description: as §1, §2, §3

[29] = system: BAZ2B; conditions: BAZ2B
Description: as §1, §2, §3

[30] = system: SP140L; conditions: SP140L
Description: as §1, §2, §3

[31] = system: CHD5 (PCC); conditions: CHD5 (PCC)
Description: as §1, §2, §3

[32] = GST-tagged, arrays performed twice, n of 4
[33] = sheet "Array Heatmap", each array performed twice, total n = 4

“H2AX (S139p): H2AX 132-142 (GKKATQA[pS]QEY; UniProt P16104 133-143, looked up, fragment)” was tested, and the “Array Heatmap value (peptide array binding signal)” value ([1]; PHF23, GST-tagged, arrays performed twice, n of 4) was 0.5395, the “Array Heatmap value (peptide array binding signal)” value ([2]; TAF3, GST-tagged, arrays performed twice, n of 4) was 0.2793 and the “Array Heatmap value (peptide array binding signal)” value ([3]; ING5, GST-tagged, arrays performed twice, n of 4) was 0.3847. The “Array Heatmap value (peptide array binding signal)” value [4, 32] was 0.411, the “Array Heatmap value (peptide array binding signal)” value ([5]; DIDO1, GST-tagged, arrays performed twice, n of 4) was 0.6489 and the “Array Heatmap value (peptide array binding signal)” value [6, 32] was 0.3554. The “Array Heatmap value (peptide array binding signal)” value [7, 32] was 0.5256, the “Array Heatmap value (peptide array binding signal)” value ([8]; ING4, GST-tagged, arrays performed twice, n of 4) was 0.4783 and the “Array Heatmap value (peptide array binding signal)” value ([9]; ING3, GST-tagged, arrays performed twice, n of 4) was 0.4704. For the same substance, the “Array Heatmap value (peptide array binding signal)” value [10, 32] was 0.4478, the “Array Heatmap value (peptide array binding signal)” value [11, 32] was 0.5526 and the “Array Heatmap value (peptide array binding signal)” value ([12]; ING2, GST-tagged, arrays performed twice, n of 4) was 0.5973. The “Array Heatmap value (peptide array binding signal)” value [13, 32] was 0.653, the “Array Heatmap value (peptide array binding signal)” value [14, 32] was 0.3885 and the “Array Heatmap value (peptide array binding signal)” value [15, 32] was 0.5363. For the same substance, the “Array Heatmap value (peptide array binding signal)” value ([16]; PHF2, GST-tagged, arrays performed twice, n of 4) was 0.4467, the “Array Heatmap value (peptide array binding signal)” value ([17]; MLL5, GST-tagged, arrays performed twice, n of 4) was 0.5137 and the “Array Heatmap value (peptide array binding signal)” value [18, 32] was 0.4613. The “Array Heatmap value (peptide array binding signal)” value [19, 32] was 0.5219, the “Array Heatmap value (peptide array binding signal)” value ([20]; ING1, GST-tagged, arrays performed twice, n of 4) was 0.495 and the “Array Heatmap value (peptide array binding signal)” value ([21]; PHF8, GST-tagged, arrays performed twice, n of 4) was 0.3729. The “Array Heatmap value (peptide array binding signal)” value ([22]; RAG2, GST-tagged, arrays performed twice, n of 4) was 0.2586, the “Array Heatmap value (peptide array binding signal)” value [23, 32] was 0.697 and the “Array Heatmap value (peptide array binding signal)” value [24, 32] was 0.4369. The “Array Heatmap value (peptide array binding signal)” value [25, 32] was 0.5358, the “Array Heatmap value (peptide array binding signal)” value [26, 32] was 0.5731 and the “Array Heatmap value (peptide array binding signal)” value ([27]; PHF13, GST-tagged, arrays performed twice, n of 4) was 0.6185. The “Array Heatmap value (peptide array binding signal)” value [28, 32] was 0.5265, the “Array Heatmap value (peptide array binding signal)” value [29, 32] was 0.5073 and the “Array Heatmap value (peptide array binding signal)” value [30, 32] was 0.363. The “Array Heatmap value (peptide array binding signal)” value [31, 32] was 0.7872.

In the case of H2BK5me1: H2B 1-24 [Peptide H2BK5me1], the “Array Heatmap value (peptide array signal)” value ([1]; PHF23, sheet "Array Heatmap", each array performed twice, total n = 4) is reported as 0.5121, the “Array Heatmap value (peptide array signal)” value ([2]; TAF3, sheet "Array Heatmap", each array performed twice, total n = 4) is reported as 0.2612 and the “Array Heatmap value (peptide array signal)” value ([3]; ING5, sheet "Array Heatmap", each array performed twice, total n = 4) is reported as 0.3396. The “Array Heatmap value (peptide array signal)” value [4, 33] was 0.4244, the “Array Heatmap value (peptide array signal)” value ([5]; DIDO1, sheet "Array Heatmap", each array performed twice, total n = 4) was 0.7058 and the “Array Heatmap value (peptide array signal)” value [6, 33] was 0.3333. The “Array Heatmap value (peptide array signal)” value [7, 33] was 0.4441, the “Array Heatmap value (peptide array signal)” value ([8]; ING4, sheet "Array Heatmap", each array performed twice, total n = 4) was 0.4312 and the “Array Heatmap value (peptide array signal)” value ([9]; ING3, sheet "Array Heatmap", each array performed twice, total n = 4) was 0.4514. The “Array Heatmap value (peptide array signal)” value [10, 33] was 0.4387, the “Array Heatmap value (peptide array signal)” value [11, 33] was 0.5519 and the “Array Heatmap value (peptide array signal)” value ([12]; ING2, sheet "Array Heatmap", each array performed twice, total n = 4) was 0.6238. The “Array Heatmap value (peptide array signal)” value [13, 33] was 0.6733, the “Array Heatmap value (peptide array signal)” value [14, 33] was 0.347 and the “Array Heatmap value (peptide array signal)” value [15, 33] was 0.6209. The “Array Heatmap value (peptide array signal)” value ([16]; PHF2, sheet "Array Heatmap", each array performed twice, total n = 4) was 0.5195, the “Array Heatmap value (peptide array signal)” value ([17]; MLL5, sheet "Array Heatmap", each array performed twice, total n = 4) was 0.5838 and the “Array Heatmap value (peptide array signal)” value [18, 33] was 0.4511. The “Array Heatmap value (peptide array signal)” value [19, 33] was 0.3816, the “Array Heatmap value (peptide array signal)” value ([20]; ING1, sheet "Array Heatmap", each array performed twice, total n = 4) was 0.5552 and the “Array Heatmap value (peptide array signal)” value ([21]; PHF8, sheet "Array Heatmap", each array performed twice, total n = 4) was 0.341. The “Array Heatmap value (peptide array signal)” value ([22]; RAG2, sheet "Array Heatmap", each array performed twice, total n = 4) was 0.242, the “Array Heatmap value (peptide array signal)” value [23, 33] was 0.6308 and the “Array Heatmap value (peptide array signal)” value [24, 33] was 0.316. The “Array Heatmap value (peptide array signal)” value [25, 33] was 0.4454, the “Array Heatmap value (peptide array signal)” value [26, 33] was 0.5218 and the “Array Heatmap value (peptide array signal)” value ([27]; PHF13, sheet "Array Heatmap", each array performed twice, total n = 4) was 0.5791. For the same substance, the “Array Heatmap value (peptide array signal)” value [28, 33] was 0.4431, the “Array Heatmap value (peptide array signal)” value [29, 33] was 0.4388 and the “Array Heatmap value (peptide array signal)” value [30, 33] was 0.3691. For the same substance, the “Array Heatmap value (peptide array signal)” value [31, 33] was 0.7328.
